Source: US9296687B2, “Modulators of HSP70/DnaK function and methods of use thereof” (The Trustees of the University of Pennsylvania, priority 2008, dated 2016)

System: U2OS cells
Experiment: Long-lived protein degradation assay
Assay type: cell-based, human
Details: 20 μM
Procedure: The long-lived protein degradation assays were performed as described (Humbey et al., 2008; Pimkina et al., 2008), but with the following modifications. The cells were seeded at 30% confluency. The cells were then labeled at 37° C. for 14 h in L-valine-free medium supplemented with dialyzed FBS medium containing 0.2 mCi/ml of L-[^14C]valine (Amersham Pharmacia). After the radiolabeling period, unincorporated radioisotope was removed by three rinses with PBS (pH 7.4). Cells were then incubated at 37° C. in fresh complete media [Dulbecco's modified Eagle's medium (DMEM), 10% fetal bovine serum (FBS), 1% penicillin-streptomycin (PS)] containing 2 mM unlabeled valine for 10 h to allow the degradation of labeled short-lived proteins. Cells were then rinsed 3 times with PBS (pH 7.4), and grown in fresh complete media [DMEM, 10% FBS, 1% PS] containing either DMSO or 20 μM PES. Aliquots of the media (0.2 ml in duplicate) were taken at 0 h, 4 h, 8 h, 24 h, and 48 h and mixed with 0.2 ml of 1% bovine serum albumin and 0.4 ml of 40% trichloroacetic acid (v/v). […] Radioactivity in the aliquots was measured on a Beckman liquid scintillation system. The percentage of long-lived protein degraded was obtained by the formula % degradation=(^14C counts at timepoint/sum of ^14C counts at each time point+total cell-associated radioactivity)×100.

NS(=O)(=O)C#Cc1ccccc1 [PES, 2-Phenylethynesulfonamide]
basal degradation of long-lived proteins: significantly reduced
